Our source for the LC retention time values is the RepoRT retention time repository.

The data set can be described thus: HILIC, Waters Atlantis Premier BEH Z-HILIC, 100 × 2.1 mm, 1.7 µm, 40 °C, 0.15 mL/min, estimated dead time 1.5 min; A: water + 20 mM ammonium carbonate + 5 µM medronic acid; B: 10% water + 90% acetonitrile + 2 mM ammonium carbonate + 0.5 µM medronic acid; gradient (min/%B) 0/100 18/60 18.1/20 21.5/20 22/100 23.5/100 25.5/100. Particulars: stereoisomer not certain.
On to `O=C(O)CC(C(=O)O)C(O)C(=O)O` (configuration not stated) [Isocitric acid], for which the LC retention time was 14 min. In the case of `CC(=O)NC1C(OP(=O)(O)OP(=O)(O)OCC2OC(n3ccc(=O)[nH]c3=O)C(O)C2O)OC(CO)C(O)C1O` (configuration not stated) [UDP-GlcNAc], the LC retention time is 9.95 min. The figure for `Cc1cc2nc3c(=O)[nH]c(=O)nc-3n(CC(O)C(O)C(O)COP(=O)(O)OP(=O)(O)OCC3OC(n4cnc5c(N)ncnc54)C(O)C3O)c2cc1C` (configuration not stated) [FAD] is 7.67 min; for `CC(C)(COP(=O)(O)OP(=O)(O)OCC1OC(n2cnc3c(N)ncnc32)C(O)C1OP(=O)(O)O)C(O)C(=O)NCCC(=O)NCCS` (configuration not stated) [CoenzymeA] it is 11.4 min; for `CCC(C)C(N)C(=O)O` (configuration not stated) [Isoleucine] it is 6.4 min. The figure for `O=C(O)CCCCC1SCC2NC(=O)NC21` (configuration not stated) [Biotin] is 4.67 min; for `O=C(O)C(CO)OP(=O)(O)O` (configuration not stated) [Phosphoglyceric acid A] it is 12.8 min; for `NC(=O)CCC(N)C(=O)O` (configuration not stated) [Glutamine] it is 9.87 min. Take `O=P(O)(O)OCC1OC(O)C(O)C(O)C1O` (configuration not stated) [Glucose-6-phosphate]: the LC retention time is 12.3 min.

For `NC(=O)c1ccc[n+](C2OC(COP(=O)(O)OP(=O)(O)OCC3OC(n4cnc5c(N)ncnc54)C(O)C3O)C(O)C2O)c1` (configuration not stated) [NAD], the LC retention time is 9.95 min. The figure for `Nc1ncnc2c1ncn2C1OC(COP(=O)(O)OP(=O)(O)OP(=O)(O)O)C(O)C1O` (configuration not stated) [ATP] is 13.6 min; for `Nc1ncnc2c1ncn2C1OC(COP(=O)(O)OP(=O)(O)O)C(O)C1O` (configuration not stated) [ADP] it is 11.6 min; for `NC(=O)C1=CN(C2OC(COP(=O)(O)OP(=O)(O)OCC3OC(n4cnc5c(N)ncnc54)C(O)C3O)C(O)C2O)C=CC1` (configuration not stated) [NADH] it is 8.31 min. For the compound `O=C1CC(C(=O)O)NC(=O)N1` (configuration not stated) [dihydroorotic acid], the LC retention time was 4.08 min. The figure for `O=C(O)CCC(O)C(=O)O` (configuration not stated) [2-hydroxy glutaric acid] is 8.86 min; for `O=C(O)CC(O)(CC(=O)O)C(=O)O` [Citric acid] it is 14.3 min; for `Nc1ncnc2c1ncn2C1OC(CO)C(O)C1O` (configuration not stated) [Adenosine] it is 3.63 min. Consider `O=C(CO)COP(=O)(O)O` [Triose phosphate], for which the LC retention time is 10.4 min. Regarding `Nc1ncnc2c1ncn2C1OC(COP(=O)(O)O)C(O)C1O` (configuration not stated) [AMP], the LC retention time was 9.42 min.

On to `CC(O)C(=O)O` (configuration not stated) [Lactic Acid], for which the LC retention time is 3.35 min. `NC(=O)c1ccc[n+](C2OC(COP(=O)(O)OP(=O)(O)OCC3OC(n4cnc5c(N)ncnc54)C(OP(=O)(O)O)C3O)C(O)C2O)c1` (configuration not stated) [NADP]: the LC retention time is 13.4 min.

As to `O=C(O)CCC(=O)O` [Succinic Acid], the LC retention time was 8.9 min. Consider `CC(C)CC(N)C(=O)O` (configuration not stated) [Leucine], for which the LC retention time is 6.46 min. Take `CC(=O)SCCNC(=O)CCNC(=O)C(O)C(C)(C)COP(=O)(O)OP(=O)(O)OCC1OC(n2cnc3c(N)ncnc32)C(O)C1OP(=O)(O)O` (configuration not stated) [Acetyl-CoA]: the LC retention time is 9.69 min. As for `O=C(O)CCC(=O)C(=O)O` [2-Oxoglutaric acid], the LC retention time was 8.86 min. In the case of `OCC1OC(O)C(O)C(O)C1O` (configuration not stated) [Hexose] it was 6.98 min.

As to `C[N+](C)(C)CC(O)CC(=O)[O-]` (configuration not stated) [Carnitine], the LC retention time was 10.1 min.

As to `O=C(CO)C(O)C(O)C(O)COP(=O)(O)O` (configuration not stated) [Fructose 6-phosphate], the LC retention time was 11.3 min. In the case of `C=C(OP(=O)(O)O)C(=O)O` [PEP] it was 13.1 min; in that of `CCC(=O)OC(CC(=O)[O-])C[N+](C)(C)C` (configuration not stated) [carnitine-C3], 6.46 min; in that of `O=P(O)(O)OCC(O)CO` (configuration not stated) [Glycerol-3-phosphate], 10.4 min. In the case of `NC(CCC(=O)O)C(=O)O` (configuration not stated) [Glutamic acid] it was 9.81 min.
